Among the test systems are 786-0 renal; KM12 colon; CCRF-CEM leukemia; NCI-H460 lung; HCC-2998 colon; SNB-78 CNS; A549 NSCLC; OVCAR-4 ovarian; DLD-1 colon; RXF 393 renal.
Common to all, as to experiment: growth of human tumour cells (NCI), 48 h

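Five concentrations, 48 hours, 96-well plates. GI50 is the concentration that inhibits growth by half. TGI marks complete inhibition of growth.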

Take `CCCCCCCCCCCCCCCCCCCCCCC(=O)N[C@H]1CCc2cc(OC)c(OC)c(OC)c2-c2ccc(SC)c(=O)cc21`: the TGI with 786-0 renal is greater than 100 µM; in the assay with KM12 colon it was greater than 100 µM; in the assay with CCRF-CEM leukemia, greater than 100 µM; in the assay on NCI-H460 lung it was 83 µM; with HCC-2998 colon it was 65.9 µM; in the assay on SNB-78 CNS it was greater than 100 µM. Also, the TGI with A549 NSCLC and in the assay with OVCAR-4 ovarian was greater than 100 µM each time.

For the molecule `C=CC(C)(C)[C@@]12CC3C(=O)N[C@@H](Cc4ccccc4)C(=O)N3[C@@H]1N(C(C)=O)c1ccccc12` (stereo partly specified), the TGI in the assay on 786-0 renal, with KM12 colon, in the assay on CCRF-CEM leukemia, in the assay with NCI-H460 lung, with SNB-78 CNS and in the assay on A549 NSCLC was greater than 100 µM in each case. Also, the TGI in the assay with OVCAR-4 ovarian is 97.5 µM; with DLD-1 colon it was greater than 100 µM.

With `CC(=O)Nc1ccc(/C=C/C(=O)c2sc(-n3nc(-c4ccccc4)cc3-c3ccccc3)nc2C)cc1`, the GI50 with 786-0 renal, in the assay on CCRF-CEM leukemia, in the assay on NCI-H460 lung, in the assay on HCC-2998 colon, in the assay with RXF 393 renal and with A549 NSCLC was greater than 100 µM throughout. Besides, the GI50 in the assay with DLD-1 colon is greater than 100 µM. Besides, the TGI in the assay on 786-0 renal, with KM12 colon, in the assay with CCRF-CEM leukemia, in the assay with NCI-H460 lung, in the assay on HCC-2998 colon and in the assay with RXF 393 renal was greater than 100 µM each time. The TGI with A549 NSCLC, in the assay with OVCAR-4 ovarian and with DLD-1 colon was greater than 100 µM throughout.

In the case of `N#Cc1cccc(C2SCc3nc4ccccc4n32)c1` (stereo unspecified), the TGI in the assay on 786-0 renal, in the assay on KM12 colon, in the assay on CCRF-CEM leukemia, in the assay on NCI-H460 lung, in the assay on SNB-78 CNS and in the assay on RXF 393 renal was greater than 100 µM throughout. Further, the TGI in the assay with A549 NSCLC, in the assay with OVCAR-4 ovarian and in the assay with DLD-1 colon was greater than 100 µM each time.

Regarding `O=c1ccn([C@@H]2C[C@H](CO)CS(=O)C2)c(=O)[nH]1` (stereo partly specified), the TGI in the assay on 786-0 renal, with KM12 colon, in the assay on CCRF-CEM leukemia, in the assay with NCI-H460 lung, in the assay with HCC-2998 colon and in the assay with A549 NSCLC was greater than 100 µM in each case. In addition, the TGI with OVCAR-4 ovarian and with DLD-1 colon was greater than 100 µM each time.

For the molecule `BrC(/C=N/Nc1nnc(-c2ccccc2)c(-c2ccccc2)n1)C(Br)c1ccccc1` (stereo unspecified), the TGI in the assay with 786-0 renal was greater than 100 µM; in the assay with KM12 colon, greater than 100 µM; in the assay with CCRF-CEM leukemia it was 94.7 µM; in the assay on NCI-H460 lung it was greater than 100 µM; in the assay with HCC-2998 colon, greater than 100 µM; in the assay on SNB-78 CNS, 78.1 µM. Besides, the TGI with RXF 393 renal, with A549 NSCLC and in the assay on DLD-1 colon was greater than 100 µM each time.

For the molecule `O=P(c1ccccc1)(c1ccccc1)C1CC=C2CCCCCC2C1` (stereo unspecified), the TGI was 51 µM with 786-0 renal; greater than 100 µM in the assay with KM12 colon; 61.5 µM in the assay with CCRF-CEM leukemia; greater than 100 µM in the assay with NCI-H460 lung; greater than 100 µM in the assay with SNB-78 CNS; 72.6 µM in the assay on RXF 393 renal. Also, the TGI in the assay with A549 NSCLC was greater than 10 µM; in the assay with OVCAR-4 ovarian, 67.4 µM.

For `Cc1cc2c(=O)cc(-c3ccncc3)oc2c(C(N)=O)c1C`, the TGI in the assay with 786-0 renal, with CCRF-CEM leukemia, with NCI-H460 lung, with HCC-2998 colon, with SNB-78 CNS and in the assay with RXF 393 renal was greater than 100 µM in each case. Moreover, the TGI in the assay with A549 NSCLC was greater than 100 µM.

In the case of `COc1cc(Br)c(C2OCCCO2)cc1OCc1ccccc1`, the TGI in the assay with 786-0 renal, with KM12 colon, in the assay on CCRF-CEM leukemia, in the assay with NCI-H460 lung, in the assay on SNB-78 CNS and with RXF 393 renal was greater than 100 µM throughout. Further, the TGI with A549 NSCLC, in the assay with OVCAR-4 ovarian and with DLD-1 colon was greater than 100 µM in each case.

`CCn1c(O)c(C(=O)Nc2cccs2)c(=O)n(CC)c1=S`: the TGI in the assay with 786-0 renal is 42.2 µM; in the assay with KM12 colon, 32.6 µM; with CCRF-CEM leukemia, greater than 100 µM; in the assay on NCI-H460 lung, 34.5 µM; in the assay on SNB-78 CNS it was 50.4 µM; with A549 NSCLC, 49.8 µM. For the same molecule, the TGI is 70.9 µM in the assay with OVCAR-4 ovarian and greater than 100 µM with DLD-1 colon.

As for `COc1cc(CC2c3cc(OC)c(OC)cc3CCN2C)c(C(=O)O)cc1OC` (stereo unspecified), the TGI with 786-0 renal, in the assay with KM12 colon, with CCRF-CEM leukemia, with HCC-2998 colon, in the assay with SNB-78 CNS and in the assay with RXF 393 renal was greater than 100 µM throughout. Also, the TGI in the assay on A549 NSCLC and in the assay with DLD-1 colon was greater than 100 µM throughout.

For the molecule `O=C1C(=C2C(=O)c3ccccc3[N+]2=O)N([O-])c2ccccc21`, the TGI in the assay with 786-0 renal was 46.1 µM; in the assay on CCRF-CEM leukemia, 63.8 µM; in the assay on NCI-H460 lung, 55.3 µM; in the assay with SNB-78 CNS it was greater than 100 µM; in the assay with RXF 393 renal, 90.6 µM; in the assay on A549 NSCLC, greater than 100 µM. Moreover, the TGI was 31.7 µM with OVCAR-4 ovarian and 88.6 µM with DLD-1 colon.

The record behind these values is PubChem BioAssay (NCI).
